The values below come from US12371472B2, “Multimeric IL-15 soluble fusion molecules and methods of making and using same” (Altor BioScience, LLC., priority 2010, dated 2025).

In one data set the test system is murine EG7-OVA lymphoma. Description: EG7-OVA lymphoma primary subcutaneous tumor growth in C57BL/6 mice (Example 27). It is filed as in vivo. Particulars: ALT-803 0.415 or 0.83 mg/kg, rhIL-15 0.06 mg/kg, four i.v. injections. The procedure:
To evaluate the effect of ALT-803 when administered via intravenous (i.v.) injection in multi-dose regimen on primary subcutaneous tumor growth of murine EG7-OVA lymphoma in C57BL/6 mice the following studies were carried out. Four treatment groups, ALT-803 (0.415 and 0.83 mg/kg), recombinant human interleukine-15 (rhIL-15, 0.06 mg/kg) and PBS (control), were examined in the study (Table 1). Female C57BL/6 mice (8-10 weeks old) were injected subcutaneously (s.c.) with EG7-OVA (1×10^6 cells in 100 μl PBS) on study day (SD) 0. PBS (n=5), rhIL-15 (n=5) or ALT-803 (n=5) were administered i.v. on SD 1, 4, 8, and 11 post EG7-OVA tumor cell injection. Tumors (width and length) were measured over the course of study. Tumor volume was the primary end point of the study.
Female C57BL/6 mice were injected s.c. with EG7-OVA (1×10^6 cells/mouse) on study day 0. […] During the study, mouse body weight and tumor width and length were measured and recorded.
The length (mm) and width (mm) of the tumors were measured and recorded. […]
Data were analyzed by ANOVA using GraphPad Prism Version 4.03. […] Tumor growth inhibition (TGI) was calculated using the following equation: TGI (%)=(Vcontrol−Vtreated)/Vcontrol×100, where Vcontrol is the mean tumor volume of mice from the PBS or rhIL-15 treatment control, and Vtreated is the mean tumor volume of mice receiving test article treatment.

Data set [1] deals with human p53+ HLA-A2+ A375 melanoma cell line. The settings on record: vs PBS; for effect on s.c. A375 tumor xenografts: Example 17, i.v., equivalent molar doses.
Method: A375 human melanoma tumor cells (1×10^6) were injected s.c. into nude mice (5-6/group). […] The mice were treated three times a week for three weeks starting on study day 11 (FIG. 50A). A375-tumor bearing nude mice were also treated i.v. with 4 mg/kg T2M as in FIG. 50A (FIG. 50B). A375 tumor bearing nude mice were i.v. with equivalent molar doses of IL-15 (0.2 mg/kg), T2M2 (2 mg/kg) or PBS (FIG. 50C). Tumors were measured every other day and tumor volumes (mean±SEM) were plotted.
To determine the therapeutic effects of the T2 protein, we examined antitumor activity in a primary tumor growth model with the human p53+ HLA-A2+A375 melanoma cell line in nude mice. Tumor cells were injected subcutaneously into nude mice and tumors were allowed to grow to 100 mm 3 before treatment began. […] The mice were treated every other day for one week (3 injections) followed by a 9 day rest period and then every other day for an additional week (3 injections). During the study, tumor growth was measured and the tumor volumes were plotted (FIG. 27).
The antitumor activity of these complexes was further examined in the subcutaneous A375 xenograft model in nude mice.
A further data set addresses IL-15Rα. Particulars: cited from earlier work.
Another data set has as its system 5T33P myeloma cells. The data set is described as follows: 5T33P murine myeloma model. Particulars: single i.v. ALT-803 0.2 mg/kg or molar equivalent IL-15, well-established tumors, four days after treatment.
The subject of another data set is NK cells and CD8 T-cells. The data set is described as follows: Immunostimulatory activity in C57BL/6 mice (NK cells, CD8 T cells, WBC, spleen weight). It is filed as in vivo. The procedure: Changes in the percentage of peripheral blood mononuclear cells (PBMC) CD8^+ and NKp46^+ cells were assessed flow cytometry as shown in FIG. 48B. PBMCs were also used to assess NK cell activity based on lysis of NK-sensitive Yac-1 target cells in a calcein release assay as shown in FIG. 48C.
On study day 4, the percentage of PBMC CD8^+ and NKp46^+ cells were assessed by flow cytometry (FIG. 49A). Nude mice were treated i.v. with IL15N72D/IL15Rα-Fc (0.2 mg/kg) or T2M2 (2 mg/kg) of study day 1. On day 4 and 7 post treatment, the percentage of PBMC NKp46^+ cells was assessed by flow cytometry (FIG. 49B). […]
Mice were i.v. injected on day 1 and 4 with the fusion proteins at an amount equivalent to a 2.5 μg dose of IL-15. On day 8, blood cells and splenocytes were collected, stained for CD8 T-cells and NK cells, and analyzed by flow cytometry. […]
C57BL/6 mice (male, 6 wks of age, Harlan, Indianapolis, IN) were injected intravenously with a single dose of IL-15N72D:IL-15RαSu/Fc fusion complex (Alt-803) at 1 mg/kg or human IL-15 wt at 0.28 mg/kg (molar equivalent dose), respectively, or PBS as a negative control. […] The stained cells were analyzed on a FACScan flow cytometer (BD Bioscience, San Jose, CA). […]

In data set [2] the test system is 32Dβ cells. The settings on record: as disclosed in WO2008143794; cited from earlier work.
Data set [3] relates to 32Dβ cells. Description: 32Dβ cell proliferation assay (WST-1), IL-15 biological activity. The settings on record: hIL-15 wild-type domain, 48 h; read-out: half-maximal stimulation (EC50). It is filed as cell-based. As for the experimental part: The biological activity of the IL-15 domain of the T2 molecules was further characterized in proliferation assays using the cytokine-dependent 32Dβ cell line. […] Cell proliferation reagent WST-1 (Roche Applied Science) was added during the last 4 h of cell growth according to the manufacturer's procedures. Conversion of WST-1 to the colored formazan dye by metabolically active cells was determined through absorbance measurements at 440 nm.
Cell proliferation assays—Cell proliferation was measured as previously described (25). Briefly, 32Dβ cells (1×10^5 cells/well) were incubated with increasing concentrations of scTCR/hIL-15 or scTCR/hIL-15 muteins in the presence or absence of an equal molar concentration of scTCR/hIL-15RαSu for 48 h at 37° C. Cell proliferation reagent WST-1 (Roche Applied Science, Indianapolis, IN) was added during the last 4 h of cell growth according to the manufacturer's procedures. Conversion of WST-1 to the colored formazan dye by metabolically active cells was determined through absorbance measurements at 440 nm. The EC50 was determined with the dose-response curve generated from the experimental data by nonlinear regression variable slope curve-fitting with Prizm4 software (GraphPad Software, La Jolla, CA). […]
Background: Tetrazolium assays rely on reduction of a dye to a coloured formazan, in cell work by metabolically active cells.

A further data set deals with T1, IL-15Rβγc receptors (UniProt P14784+P34902).
T1 construct: expressed in transfected cells; host or cells: 32Dβ cells
T1 sequence (P14784 27-551): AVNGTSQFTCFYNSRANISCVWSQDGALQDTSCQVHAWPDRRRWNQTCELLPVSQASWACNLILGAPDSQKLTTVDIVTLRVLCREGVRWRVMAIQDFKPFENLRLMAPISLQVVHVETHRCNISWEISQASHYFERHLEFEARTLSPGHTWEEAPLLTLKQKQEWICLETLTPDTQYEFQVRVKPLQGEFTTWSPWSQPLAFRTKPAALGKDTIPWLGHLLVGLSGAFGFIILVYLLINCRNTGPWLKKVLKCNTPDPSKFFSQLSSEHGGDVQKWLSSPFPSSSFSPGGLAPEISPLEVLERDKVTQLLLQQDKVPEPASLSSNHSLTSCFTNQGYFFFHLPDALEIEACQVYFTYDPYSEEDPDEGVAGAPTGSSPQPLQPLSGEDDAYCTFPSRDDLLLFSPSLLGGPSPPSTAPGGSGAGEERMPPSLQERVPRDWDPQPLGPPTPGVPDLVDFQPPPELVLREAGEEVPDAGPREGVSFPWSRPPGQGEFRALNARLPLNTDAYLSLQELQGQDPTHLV
T1 sequence (P34902 23-369): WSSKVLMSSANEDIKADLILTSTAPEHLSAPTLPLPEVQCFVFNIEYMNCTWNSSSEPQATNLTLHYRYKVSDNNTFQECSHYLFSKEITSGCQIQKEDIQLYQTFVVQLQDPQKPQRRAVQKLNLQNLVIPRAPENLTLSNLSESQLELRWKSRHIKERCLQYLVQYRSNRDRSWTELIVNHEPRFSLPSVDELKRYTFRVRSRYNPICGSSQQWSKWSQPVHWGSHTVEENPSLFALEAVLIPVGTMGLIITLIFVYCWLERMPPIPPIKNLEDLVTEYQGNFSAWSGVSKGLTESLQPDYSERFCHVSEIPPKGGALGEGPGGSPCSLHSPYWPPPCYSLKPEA
The data set is described as follows: IL-15Rβγc receptor binding of IL-15 variants and fusion complexes on 32Dβ cells (flow cytometry). The settings on record: 320 nM fusion protein complex. As for the experimental part:
(§1) The fusion protein complexes comprising IL-15 variants as described in the table immediately above were characterized for their ability to bind the TCR-specific antigen, p53 (aa264-272)/HLA-A2.1. To generate cells presenting p53 (aa264-272)/HLA-A2.1, HLA-A2.1-positive T2 cells (2×10^6/mL) were loaded with 20 μM p53 (aa264-272) peptide at 37° C. in the presence of 1×PLE (Altor Bioscience) for 2-3 hrs. T2 cells that were not incubated with peptide and 321313 cells expressing IL-2/15Rβγc serve as controls. […] These complexes were generated by incubating 160 nM of purified c264scTCRhuIL15 fusion protein and 160 nM of purified c264scTCRhuIL15Rα Sushi fusion protein at 4 C for 3 hours. Following staining, cells were washed once with washing buffer (PBS containing 0.5% BSA and 0.05% sodium azide) and stained with 0.5 μg of biotinylated mouse monoclonal anti-human TCR Cβ antibody (BF1) in 100 μL of washing buffer for 30 min at 4 C. Cells were washed once and stained with 0.5 μg of R-Phycoerythrin conjugated streptavidin in 100 μL of washing buffer for 30 min at 4 C. Cells were washed and resuspended for analysis by flow cytometry.
The binding of the proteins was in turn detected with biotinylated (BF1) 8A3.31 mAb for 15 min and SA-PE (5 μg/ml each) for 15 min. The stained cells were analyzed by flow cytometry as described above.

The test system of the next data set is p53 (aa264-272)/HLA-A2.1. The data set is described as follows: Flow cytometry staining of p53 (aa264-272) peptide-loaded HLA-A2-positive T2 cells. The format is binding, human. The settings on record: 320 nM dimeric complex; vs c264scTCR/huIL15+c264scTCR/huIL15RαSushi complex. As for the experimental part: as §1, with “Cells were washed and resuspended for analysis by flow cytometry.” left out
For the OT1scTCR fusion protein complexes, murine lymphoma EL4 cells were pulsed with OVA peptide at 100 μg/ml and PLE at 37° C. for 6 h. […] The samples were washed two times and analyzed on a FACScan flow cytometer using CellQuest software (BD Biosciences, San Jose, CA). […]
On the technique in general: In flow cytometry, cells or beads pass a laser one at a time.

For a further data set, the target named is TNF-α (Homo sapiens, UniProt P01375). The settings on record: cited from earlier work.

Read-outs that look alike come from different tables or passages of the source.

Sequence of IL-15Rα (Q13261 31-95 limits assumed): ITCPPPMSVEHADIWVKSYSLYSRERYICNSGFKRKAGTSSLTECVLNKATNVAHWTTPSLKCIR
Sequence of TNF-α (P01375 77-233 limits assumed): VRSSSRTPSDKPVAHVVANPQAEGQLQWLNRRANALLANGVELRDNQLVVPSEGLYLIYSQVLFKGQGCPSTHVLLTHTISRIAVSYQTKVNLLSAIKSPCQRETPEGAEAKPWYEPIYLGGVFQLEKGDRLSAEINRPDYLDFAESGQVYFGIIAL
Method for 5T33P myeloma cells: BM cells were collected 4 days after study drug treatments. […] The plotted values represent the mean±SE; P values are presented. […] Female C57BL/6NHsd mice (n=5/group) were injected i.v. with murine 5T33P myeloma cells (1×10^7 cells/mouse) on day 0. […] Control mice were treated with PBS on day 4. Survival (or morbidity due to hind leg paralysis) was monitored as a study endpoint. […] Five treatment-naïve mice were also administered 5T33P cells (1×10^7) on day 93 as a control for tumor development.
Tumor-bearing mice were monitored daily for hind leg paralysis, signs of overt disease progression and mortality.
Levels of BM myeloma cells and hind leg paralysis or survival were assessed as study endpoints.
Control mice received PBS (0.2 mL).

On to “IL-15: recombinant human wild-type IL-15”, for which the “EG7-OVA tumor growth vs PBS” value in the data set with murine EG7-OVA lymphoma is listed as “significantly inhibited”. For the same substance, the “effect on s.c. A375 tumor xenografts” value in data set [1] is reported as “no effect”. Also, the Kd on IL-15Rα (in solution, Bouchaud et al. 2008, read-out: Kd of complex of soluble IL-15RαSu and IL-15) was 0.1 nM; on IL-15Rα (read-out: Equilibrium dissociation constant (KD) of hIL-15 with hIL-15Rα) it was roughly 0.01 nM; at IL-15Rα (read-out: affinity of IL-15Rα for hIL-15), 0.038 nM. Further, the “reduction in BM myeloma cells compared to PBS controls” value in the data set on 5T33P myeloma cells was determined as 53%. Also, the “WBC counts, spleen weight and blood NK and CD8+ T cell populations” value with NK cells and CD8 T-cells (Example 17, single i.v. dose at molar equivalent of IL-15 1 mg/kg, day 4) is given as “little or no effect”. Also, the “expansion of NK and CD8+ T cells in blood and spleen” value with NK cells and CD8 T-cells (Example 22, single i.v. dose, complex 1 mg/kg or IL-15 wt 0.28 mg/kg, four days) is “no significant effect”.

For Mutant 6: human IL-15 variant, N72D, the “increase of IL-15 biological activity by the substitution” value in the data set on 32Dβ cells [2] is reported as 5 to 10 fold.

Broadly, the EC50 is the concentration needed to bring the measured effect to its halfway point. “c264scTCR/huIL15: c264scTCR fused to the N-terminus of hIL-15”: the EC50 in the data set on 32Dβ cells [3] is roughly 0.3 nM. In data set [1], the “effect on s.c. A375 tumor xenografts” value is “no effect”.

As for “c264scTCR/huIL15D8A+c264scTCR/huIL15Rα Sushi complex: dimeric fusion protein complex with IL-15 D8A variant”, in the data set with IL-15Rβγc receptors, the “binding to the IL-15Rβγc receptors present on the 32Dβ cells” value is recorded as “do not show binding activity”. Also, the “specific staining of p53 peptide-loaded T2 cells” value in the data set on p53 (aa264-272)/HLA-A2.1 was “equivalent activity”.

Consider “c264scTCR/huIL15D8N+c264scTCR/huIL15RαSushi complex: dimeric fusion protein complex with IL-15 D8N variant”, for which, in the data set with IL-15Rβγc receptors, the “binding to the IL-15Rβγc receptors present on the 32Dβ cells” value is listed as “do not show binding activity”. The “specific staining of p53 peptide-loaded T2 cells” value in the data set with p53 (aa264-272)/HLA-A2.1 is “equivalent activity”.

On to “c264scTCR/huIgG1: p53 (aa 264-272) single-chain TCR fused to human IgG1”, for which the A375 tumor growth entry in [1] (Example 10, i.v. 1.6 mg/kg T2 or c264scTCR/huIL2, 3 mg/kg 264scTCR/huIgG1) is “inhibited”.

Turning to etanercept, at TNF-α, the “potency at inhibiting TNF-α activity relative to monomeric sTNFR” value is on record as “up to 1,000 times” and the “serum half-life relative to the monomeric form” value is given as “five-fold longer serum half-life”.
